Test results as given in ChEMBL document CHEMBL5335837, “Reinvestigation of diphenylmethylpiperazine analogues of pyrazine as new class of Plasmodial cysteine protease inhibitors for the treatment of malaria” (RSC Med Chem, 2024).
Active and inactive are the calls of the source. The rule behind the calls is not given here.

Experiments:
[1] = system: Plasmodium falciparum; experiment: Antimalarial activity against Plasmodium falciparum 3D7 assessed as reduction in parasite growth incubated for 48 to 50 hrs by microplate reader analysis; type: functional, organism-based
[2] = system: Erythrocyte; experiment: Hemolytic activity in human RBCs at 100 uM incubated for 2 hrs by microplate reader analysis; type: toxicity, cell-based
[3] = target: T1, Falcipain 2 (Plasmodium falciparum, UniProt Q9N6S8); experiment: Inhibition of Plasmodium falciparum FP2 using Z-Leu-Arg-AMC as substrate incubated for 30 mins by spectrofluorometry analysis
T1 sequence (Q9N6S8 whole entry): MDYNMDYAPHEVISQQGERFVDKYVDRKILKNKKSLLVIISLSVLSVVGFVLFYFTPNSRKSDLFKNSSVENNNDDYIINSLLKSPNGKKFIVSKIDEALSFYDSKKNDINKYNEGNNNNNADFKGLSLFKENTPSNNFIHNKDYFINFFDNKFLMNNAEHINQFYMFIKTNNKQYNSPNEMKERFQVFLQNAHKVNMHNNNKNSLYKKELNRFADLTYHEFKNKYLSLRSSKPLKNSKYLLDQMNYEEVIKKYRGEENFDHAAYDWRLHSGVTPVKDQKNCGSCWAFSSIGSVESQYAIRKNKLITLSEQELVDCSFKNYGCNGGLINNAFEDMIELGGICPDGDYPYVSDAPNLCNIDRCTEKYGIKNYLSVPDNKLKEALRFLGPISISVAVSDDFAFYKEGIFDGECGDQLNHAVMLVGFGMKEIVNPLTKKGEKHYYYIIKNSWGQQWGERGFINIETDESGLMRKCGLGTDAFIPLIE

[4] = target: T2, Falcipain-3 (Plasmodium falciparum 3D7, UniProt Q8IIL0); experiment: Inhibition of Plasmodium falciparum FP3 using Z-Leu-Arg-AMC as substrate incubated for 30 mins by spectrofluorometry analysis
T2 sequence (Q8IIL0 whole entry): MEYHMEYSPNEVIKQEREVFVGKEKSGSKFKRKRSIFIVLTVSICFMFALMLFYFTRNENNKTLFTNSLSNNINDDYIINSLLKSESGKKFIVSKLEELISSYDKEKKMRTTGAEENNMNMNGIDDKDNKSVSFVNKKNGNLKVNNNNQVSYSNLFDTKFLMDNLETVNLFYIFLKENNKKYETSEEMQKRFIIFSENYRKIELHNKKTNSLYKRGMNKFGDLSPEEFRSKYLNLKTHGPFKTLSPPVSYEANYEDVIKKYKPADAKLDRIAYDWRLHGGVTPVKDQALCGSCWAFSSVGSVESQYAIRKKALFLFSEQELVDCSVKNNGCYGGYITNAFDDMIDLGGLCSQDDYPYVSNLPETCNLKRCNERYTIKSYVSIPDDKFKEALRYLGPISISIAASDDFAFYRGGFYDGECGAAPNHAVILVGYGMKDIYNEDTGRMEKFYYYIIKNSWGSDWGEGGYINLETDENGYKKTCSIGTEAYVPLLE

[5] = system: Plasmodium falciparum; experiment: Antimalarial activity against ring stage Plasmodium falciparum 3D7 infected in human erythrocytes incubated for 48 to 50 hrs by YOYO-1 staining based FACS analysis; type: functional, organism-based; details: 3D7, Erythrocyte
[6] = Selectivity index, ratio of IC50 for cytotoxicity against african green monkey vero cells to IC50 for antimalarial activity against Plasmodium falciparum 3D7; type: toxicity, cell-based; details: read-out: Ratio IC50
[7] = Selectivity index, ratio of IC50 for cytotoxicity against african green monkey vero cells to IC50 for antimalarial activity against Plasmodium falciparum W2; type: toxicity, cell-based; details: read-out: Ratio IC50
[8] = system: Plasmodium falciparum; experiment: Antimalarial activity against Plasmodium falciparum W2 assessed as reduction in parasite growth incubated for 48 to 50 hrs by microplate reader analysis; type: functional, organism-based
[9] = system: Plasmodium falciparum; experiment: Resistance index, ratio of IC50 for antimalarial activity against Plasmodium falciparum 3D7 to IC50 for antimalarial activity against Plasmodium falciparum W2; type: functional
[10] = system: Plasmodium falciparum; experiment: Antimalarial activity against Plasmodium falciparum 3D7 assessed as decrease in development of early trophozoite stage at 3 times IC50 incubated for 48 hrs by Geimsa staining based analysis; type: functional, organism-based
[11] = system: Plasmodium falciparum; experiment: Antimalarial activity against Plasmodium falciparum 3D7 assessed as decrease in new ring formation at 3 times IC50 concentration incubated for 48 hrs by Geimsa staining based analysis; type: functional, organism-based
[12] = system: Vero; experiment: Cytotoxicity against african green monkey Vero cells upto 1000 uM measured after 72 hrs by MTT assay; type: toxicity, cell-based; details: chlorocebus sabaeus
[13] = system: A549; experiment: Anticancer activity against human A549 cells measured after 24 hrs by MTT assay; type: functional, cell-based; details: A549, 24 h
[14] = Selectivity index, ratio of IC50 for cytotoxicity against human A549 cells to IC50 for antimalarial activity against Plasmodium falciparum 3D7; type: toxicity, cell-based; details: read-out: Ratio IC50
[15] = Selectivity index, ratio of IC50 for cytotoxicity against human A549 cells to IC50 for antimalarial activity against Plasmodium falciparum W2; type: toxicity, cell-based; details: read-out: Ratio IC50
[16] = Selectivity index, ratio of IC50 for cytotoxicity against african green monkey vero cells to IC50 for cytotoxicity against human A549 cells
[17] = system: Plasmodium falciparum; experiment: Antimalarial activity against Plasmodium falciparum 3D7 assessed as inhibition of parasite growth incubated for 72 hrs by confocal microscopy analysis; type: functional, organism-based; details: 3D7, 72 h
[18] = system: Plasmodium falciparum; experiment: Antimalarial activity against Plasmodium falciparum Dd2 assessed as inhibition of parasite growth incubated for 72 hrs by confocal microscopy analysis; type: functional, organism-based; details: Dd2, 72 h
[19] = Plasmodium falciparum, 3D7, read-out: IC50

SMILES	IC50 [1, 19]	Activity [2]	IC50 [3]	IC50 [4]	selectivity ratio [6]	selectivity ratio [7]	IC50 [8]	Ratio IC50 [9]	Activity [12]	IC50 [13]	selectivity ratio [14]	selectivity ratio [15]	Ratio IC50 [16]	other results
COc1cccc(C(c2ccc(F)cc2)N2CCN(c3cnccn3)CC2)c1O (stereo not given)	> 12.5 µM	Non-Toxic	–	–	–	–	–	–	–	–	–	–	–	–
COc1cccc(C(c2ccc(F)c(Cl)c2)N2CCN(c3cnccn3)CC2)c1O (stereo not given)	7.32 µM	Non-Toxic	–	–	–	–	–	–	–	–	–	–	–	–
CC(C)C[C@H](NC(=O)[C@H]1O[C@@H]1C(=O)O)C(=O)NCCCCN=C(N)N [E-64]	–	–	0.0544 µM	0.116 µM	–	–	–	–	–	–	–	–	–	–
CCc1nc(N)nc(N)c1-c1ccc(Cl)cc1 [PYRIMETHAMINE]	–	–	–	–	–	–	–	–	–	–	–	–	–	IC50 [5]: 0.015 µM
Oc1ccccc1C(c1ccc(F)c(Cl)c1)N1CCN(c2cnccn2)CC1 (stereo not given)	4.1 µM	Non-Toxic	–	–	–	–	–	–	–	–	–	–	–	–
Oc1ccccc1C(c1ccc(C(F)(F)F)cc1)N1CCN(c2cnccn2)CC1 (stereo not given)	1.78 µM	Non-Toxic	8.5 µM	9.6 µM	562	31.9	31.4 µM	0.06	Non-Toxic	59.5 µM	33.4	1.89	16.8	Activity [10]: Active; Activity [11]: Active
Oc1ccccc1C(c1ccc(Cl)c(Cl)c1)N1CCN(c2cnccn2)CC1 (stereo not given)	2.81 µM	Non-Toxic	6.6 µM	6.9 µM	356	244	4.1 µM	0.68	Non-Toxic	61.4 µM	21.9	15	16.29	Activity [10]: Active; Activity [11]: Active
COc1cccc(C(c2ccc(C)cc2)N2CCN(c3cnccn3)CC2)c1O (stereo not given)	> 12.5 µM	Non-Toxic	–	–	–	–	–	–	–	–	–	–	–	–
Oc1ccccc1C(c1ccc(F)cc1)N1CCN(c2cnccn2)CC1 (stereo not given)	–	Non-Toxic	–	–	–	–	–	–	–	–	–	–	–	IC50 [1]: Not Determined(Insoluble)
COc1cccc(C(c2ccc(F)c(F)c2)N2CCN(c3cnccn3)CC2)c1O (stereo not given)	13.5 µM	Non-Toxic	24.3 µM	27.6 µM	74.1	129	7.78 µM	1.73	Non-Toxic	203 µM	15.1	26.1	4.92	–
Cc1ccc(C(c2ccccc2O)N2CCN(c3cnccn3)CC2)cc1 (stereo not given)	3.76 µM	Non-Toxic	–	–	–	–	–	–	–	–	–	–	–	–
COc1cccc(C(c2ccc(Cl)c(Cl)c2)N2CCN(c3cnccn3)CC2)c1O (stereo not given)	4.62 µM	Non-Toxic	–	–	–	–	–	–	–	–	–	–	–	–
CCN(CC)CCCC(C)Nc1ccnc2cc(Cl)ccc12 (stereo not given) [CHLOROQUINE]	–	Non-Toxic	–	–	–	–	–	–	–	–	–	–	–	–
COc1ccc(C(c2cccc(OC)c2O)N2CCN(c3cnccn3)CC2)cc1 (stereo not given)	> 12.5 µM	Non-Toxic	–	–	–	–	–	–	–	–	–	–	–	–
Oc1ccccc1C(c1ccc(F)c(F)c1)N1CCN(c2cnccn2)CC1 (stereo not given)	3.91 µM	Non-Toxic	–	–	–	–	–	–	–	–	–	–	–	–
FC(F)Oc1ccc(-c2nnc3cncc(OCCc4ccccc4)n23)cc1	–	–	–	–	–	–	–	–	–	–	–	–	–	IC50 [17]: 0.31 µM; IC50 [18]: 0.54 µM
COc1cccc(C(c2ccc(OC(F)(F)F)cc2)N2CCN(c3cnccn3)CC2)c1O (stereo not given)	3.5 µM	Non-Toxic	11.4 µM	14.4 µM	286	459	2.18 µM	1.6	Non-Toxic	47.1 µM	13.5	21.6	21.23	–
COc1ccc(C(c2ccccc2O)N2CCN(c3cnccn3)CC2)cc1 (stereo not given)	17.2 µM	Non-Toxic	31.1 µM	33.9 µM	58.1	467	2.14 µM	8.04	Non-Toxic	514 µM	29.9	240	1.95	Activity [10]: Active; Activity [11]: Active
Oc1ccccc1C(c1ccc(OC(F)(F)F)cc1)N1CCN(c2cnccn2)CC1 (stereo not given)	2.8 µM	Non-Toxic	5.9 µM	6.4 µM	357	295	3.39 µM	0.83	Non-Toxic	91.8 µM	32.8	27.1	10.89	Activity [10]: Active; Activity [11]: Active
COc1cccc(C(c2ccc(C(F)(F)F)cc2)N2CCN(c3cnccn3)CC2)c1O (stereo not given)	3.05 µM	Non-Toxic	6.2 µM	6.8 µM	328	230	4.35 µM	0.7	Non-Toxic	120 µM	39.5	27.7	8.3	Activity [10]: Active; Activity [11]: Active
